Data reported in PMC5662472 (Chemical communications (Cambridge, England), 2017).

Legend:
[1] = target: Helicobacter pylori α1–3/4-fucosyltransferase (Hp3/4FT) (Helicobacter pylori, UniProt Q9L8S4); experiment: HPLC fucosyltransferase assay; details: acceptor; co-substrate GDP-Fuc; labelled compound
[2] = test system: C[C@@H]1O[C@H](OP(=O)(O)OP(=O)(O)OC[C@H]2O[C@@H](n3cnc4c(=O)[nH]c(N)nc43)[C@H](O)[C@@H]2O)[C@@H](O)[C@H](O)[C@@H]1O; experiment: purified protein; details: donor; co-substrate LacNAcβPro2AA (best acceptor)

Substance | Km [1] | Km [2] | kcat [2] | kcat/Km [2]
Galβ3GlcNAcβPro2AA | 1320 ± 240 µM |  |  | 
Helicobacter pylori α1–3/4-fucosyltransferase (Hp3/4FT) (Helicobacter pylori) |  | 860 ± 130 µM | 6.02 ± 0.26 s⁻¹ | 7010 M⁻¹ s⁻¹
LacNAcβPro2AA | 460 ± 70 µM |  |  | 
LacβPro2AA | 990 ± 180 µM |  |  | 
